{"source": "patent US8552064B2", "about": "“Suramin and derivatives thereof as topical microbicide and contraceptive” (Eastern Virginia Medical School, priority 2005, dated 2013)", "key": {"sperm": {"test_system": "sperm", "experiment": "Sperm progressive motility dose-response and time studies, CASA", "type": "cell-based, human", "details": "1-10,000 μg/mL or 5-0.07 mM"}, "[1]": {"test_system": "sperm penetration in cervical mucus", "experiment": "Modified One End Test (MOET), sperm penetration in bovine cervical mucus", "type": "cell-based", "description": "Bovine cervical mucus was obtained from Humagen (Charlottesville, Va.) in the form of prepackaged flat capillary tubes (Penetrak®), kept frozen and thawed right prior to the experiment. The Modified One End Test (MOET) [(described in Doncel G. F., in “Barrier Contraceptives”, Wiley-Liss, Mauck C. K. et al. eds., pp. 147-162 (1994)] was used to determine the effect of compounds, such as suramin sodium described herein, on sperm penetration in cervical mucus. Each of the test compositions containing the compound to be tested were diluted in a saline solution, i.e., at 9 grams of NaCl per liter of water. Tubes of cervical mucus were broken open. The open end was placed in a container containing the test compound in saline. The test compound was allowed to diffuse for 30 minutes through the tube. A semen sample, obtained from normal healthy donors, was then diluted with a buffer solution to 60 million motile sperm per milliliter and mixed with the test compound sample (i.e., suramin sodium). The tube containing the test compound sample was then re-inserted into the container containing the mixed solution and stored in an incubator at 37° C. in an atmosphere of 5 percent carbon dioxide in air for 60 minutes. The container and tube were then removed from the incubator and the tube was visually analyzed under a microscope for the migration of motile vanguard sperm through the tube. The results are expressed as percentage of migration as compared to control samples. In the control samples, the tubes were incubated with saline containing no compound. […]"}}}
{"molecule": "CCCCCCCCCc1ccc(OCCOCCOCCOCCOCCOCCOCCOCCOCCO)cc1", "note": "[N-9, α-(4-Nonylphenyl)-ω-hydroxynona(oxyethylene)]", "values": [{"measurement": "sperm progressive motility and membrane integrity vs solvent control", "setting": "sperm", "result": "displayed its known sperm-immobilizing effects"}, {"measurement": "MOET % CTL", "setting": "[1]; 30 ug/ml", "result": "48.6 ± 6.9", "unit": "% CTL"}, {"measurement": "blocking of sperm penetration", "setting": "[1]; 300 μg/mL (0.03%)", "result": "completely blocked sperm penetration"}, {"measurement": "MOET % CTL", "setting": "[1]; 300 ug/ml", "result": "0.7 ± 0.5", "unit": "% CTL"}]}
{"molecule": "Dextran Sulfate", "values": [{"measurement": "MOET % CTL", "setting": "[1]; 6.25 mg/ml", "result": "93.7 ± 1.7", "unit": "% CTL"}, {"measurement": "MOET % CTL", "setting": "[1]; 12.5 mg/ml", "result": "82.4 ± 5.2", "unit": "% CTL"}, {"measurement": "MOET % CTL", "setting": "[1]; 25 mg/ml", "result": "86.8 ± 4.4", "unit": "% CTL"}, {"measurement": "inhibition of sperm penetration in MOET", "setting": "[1]; 50 mg/mL (5%)", "result": "more inhibition than suramin sodium"}, {"measurement": "MOET % CTL", "setting": "[1]; 50 mg/ml", "result": "56.6 ± 8.9", "unit": "% CTL"}]}
